Test results: US5506217A, “Phosphonates as anti-cancer agents” (The University of British Columbia, priority 1994, dated 1996)

What was measured:
[1] = system: human colon carcinoma (HT29); test: effect of S-thioalkylphosphonate on tumor cell line (% of control); type: cell-based; conditions: read-out: HT29 cells (% of control)
WEHI-3B cells = test: WEHI-3B tumor growth under the skin in mice (S-thioalkylphosphonate); type: in vivo
Experimental: We also provide data on the activity of S-thioalkylphosphonate to delay growth of tumor in the mice. WEHI-3B cells were grown in mice under the skin. Three days after the injection of cancer cells the mice received daily 10 mg/kg thialkylphosphonate for 21 days. The control mice received the saline alone instead of the drug. After 21 days, the tumor volume was measured. […] The tumor volume was measured in CM^3.

P388 tumor cells = test: colonogenic cell survival assay; type: cell-based; conditions: Mus musculus, 120 h, P388, soft agar, 5 days, read-out: Number of colonies Formed (% of Control)
Experimental: (§1) Inhibition of colony formation in soft agar medium (colonogenic cell survival assay) is a more rigorous and direct measurement of cell kill or growth inhibition, and reflects the anti-cancer activity of the test compound. Briefly, tumor cells were cultured in petri dishes in methylcellulose, with or without a phosphonate test compound, and the number of colonies formed during a 5-day incubation period were counted.
The efficacy of 4-hexadecylthio-3-methoxybutane phosphonocholine on the growth of a mouse […] tumor was evaluated. The P388 cell line was cultured in a soft agar in the presence and absence of various concentrations of thioalkylphosphonate for 5 days, the number of tumor colonies formed during this period of time was registered.

[2] = system: RPMI7915 cells (human melanoma); test: effect of S-thioalkylphosphonate on tumor cell line (% of control); type: cell-based
L1210 tumor cells = test: colonogenic cell survival assay; type: cell-based; conditions: Mus musculus, 120 h, L1210, soft agar, read-out: Number of Colonies Formed (% of Control)
Experimental: as §1
The effectiveness of S-thioalkylphosphonate on the growth of a lymphoma cell line was also investigated. L1210 is a mouse B-Cell tumor (lymphoma), was tested in soft agar for susceptibility to the cytotoxic action of thioalkylphosphonate.

With `CCCCCCCCCCCCCCCCSCC(CCP(=O)([O-])OCC[N+](C)(C)C)OC` (stereo not shown) [S-Thioalkylphosphonocholine, 4-hexadecylthio-3-methoxybutane phosphonocholine] as the compound, how does the activity at 0.6 µM ([1]; HT-29, 0.6 μM) read?
The activity at 0.6 µM was 99%.

What about the activity at 1.25 µM ([1]; HT-29, 1.25 μM) of the same compound?
The activity at 1.25 µM was 83%.

What about the activity at 2.5 µM ([1]; HT-29, 2.5 μM) of the same compound?
The activity at 2.5 µM was 71%.

What about the activity at 5 µM ([1]; HT-29, 5 μM) of the same compound?
The activity at 5 µM was 54%.

What about the activity at 10 µM ([1]; HT-29, 10 μM) of the same compound?
Its activity at 10 µM is 45%.

And the activity at 20 µM ([1]; HT-29, 20 μM)?
Its activity at 20 µM is 18%.

What about the activity at 40 µM ([1]; HT-29, 40 μM) of the same compound?
Its activity at 40 µM is 1%.

What about the “reduction of tumor size” value (WEHI-3B cells; after 21 days, daily 10 mg/kg) of the same compound?
Its value is “about 50%”.

What about the “Tumor Volume at Day 21” value (WEHI-3B cells; daily 10 mg/kg for 21 days, from three days after injection of cancer cells) of the same compound?
The value was “.0359 ± 0.128 cm^3”.

And the activity at 0.62 µM (P388 tumor cells; 0.62 μM)?
The activity at 0.62 µM was 55%.

What about the activity at 1.25 µM (P388 tumor cells; 1.25 μM) of the same compound?
Its activity at 1.25 µM is 43.7%.

What about the activity at 2.5 µM (P388 tumor cells; 2.5 μM) of the same compound?
The activity at 2.5 µM was 41%.

What about the activity at 5 µM (P388 tumor cells; 5 μM) of the same compound?
Its activity at 5 µM is 29%.

And the activity at 10 µM (P388 tumor cells; 10 μM)?
The activity at 10 µM was 3%.

What about the activity at 20 µM (P388 tumor cells; 20 μM) of the same compound?
Its activity at 20 µM is 1%.

What about the activity at 0.6 µM ([2]; RPMI-7951, 0.6 μM) of the same compound?
Its activity at 0.6 µM is 98%.

And the activity at 1.25 µM ([2]; RPMI-7951, 1.25 μM)?
Its activity at 1.25 µM is 80%.

And the activity at 2.5 µM ([2]; RPMI-7951, 2.5 μM)?
The activity at 2.5 µM was 78%.

And the activity at 5 µM ([2]; RPMI-7951, 5 μM)?
The activity at 5 µM was 63%.

And the activity at 10 µM ([2]; RPMI-7951, 10 μM)?
The activity at 10 µM was 40%.

What about the activity at 20 µM ([2]; RPMI-7951, 20 μM) of the same compound?
The activity at 20 µM was 29%.

And the activity at 40 µM ([2]; RPMI-7951, 40 μM)?
Its activity at 40 µM is 0%.

And the activity at 0.65 µM (L1210 tumor cells; 0.65 μM)?
Its activity at 0.65 µM is 65%.

What about the activity at 1.25 µM (L1210 tumor cells; 1.25 μM) of the same compound?
The activity at 1.25 µM was 47%.

What about the activity at 2.5 µM (L1210 tumor cells; 2.5 μM) of the same compound?
Its activity at 2.5 µM is 30.5%.

And the activity at 5 µM (L1210 tumor cells; 5 μM)?
The activity at 5 µM was 30%.

And the activity at 10 µM (L1210 tumor cells; 10 μM)?
Its activity at 10 µM is 20.5%.

And the activity at 20 µM (L1210 tumor cells; 20 μM)?
The activity at 20 µM was 14%.
